# Data: patent publication US11517617B2, “Methods and compositions for preventing influenza infection” (THE UNIVERSITY OF MELBOURNE, priority 2017, dated 2022)
# pEC50: −log10 of the molar value. Where “and” joins values, the source holds several entries; their conditions need not be identical. Equal values may be shown once. No end group written: not given here.
# Key:
# IBV = tested on: IBV; set-up: species or system HHD-A2 mice; conditions: mouse, in vivo
# A2/PB1413^+CD8^+ T cells = format: cell-based, human
# tetramer^+ CD8^+ T cells [1] = test: Tetramer staining of IAV- or IBV-specific CD8^+ T cell lines established in vitro from healthy adult PBMC; format: cell-based, human; conditions: for tetramer^+ of CD8^+ T cells, median: n=11
# Description: Conversely, the universal A2/PB1413 epitope within the IBV-specific T cell lines was immunodominant (0.3%; detected in 8/11 donors) over the IBV-specific A2/BHA543 (0.11%; detected in 10/11 donors) and A2/BNS1266 epitopes (0.01%) (FIG. 4c).
# HLA-A*02:01 = HLA-A*02:01 (Homo sapiens, UniProt P04439, D140Y/D185E/D98H/E176V/E277Q/G131W/G231S/I119V/I121R/I166T/I218V/L300P/L318F/N151K/N90K/P208A/P217A/Q86G/Q94H/R138H/R169H/T345S); test: Thermal stability of pHLA-A*02:01 complex (Tm); format: binding
# [2] = tested on: memory CD8^+ T cells within PBMCs; format: cell-based, human
# CD8^+ T cells [3] = format: cell-based, human
# [4] = tested on: A2/PB1413-specific CD8^+ T cells; format: cell-based, human; conditions: n=24
# tetramer^+ CD8^+ T cells [5] = format: cell-based, human
# tetramer^+CD8^+ T cells = format: cell-based, human
# human lung CD8^+ T cells = test: Ex vivo tetramer detection in human lung samples from deceased organ donors; format: cell-based
# Description: As human memory CD8^+ T cells also reside outside the circulation, a rare set of human lung samples from deceased organ donors (n=3) were used to assess the presence of universal A2/PB1413^+CD8^+ T cells at the site of infection. CD8^+ T cells specific for A2/M158 and A2/PB1413, but not A2/BHA543 were detected within human lung CD8^+ T cells (2/3 donors for either specificity, FIG. 3f). […] Although based on a limited number of donors, this analysis indicates the presence of universal A2/PB1413^+ tissue-resident memory CD8^+ T cell pools in the human lung.
# CD8^+ T cells [6] = tested on: CD8^+ T cells
# [7] = IAV-specific CD8^+ T cell lines
sequence,measurement,setting,value
"NMLSTVLGV [PB1413-421, NMLSTVLGV]",epitope-specific CD8^+ T cells after immunization,IBV,could not be detected
same,IFN-γ production towards peptide,A2/PB1413^+CD8^+ T cells,minimal
same,magnitude of A2/PB1413-specific CD8^+ T cells,A2/PB1413^+CD8^+ T cells,markedly increased
same,donors with detected tetramer^+ cells,tetramer^+ CD8^+ T cells [1]; [7],10/11
same,"tetramer^+ of CD8^+ T cells, median",tetramer^+ CD8^+ T cells [1]; [7],0.12%
same,donors with detected tetramer^+ cells,tetramer^+ CD8^+ T cells [1]; IBV-specific T cell lines,8/11
same,"tetramer^+ of CD8^+ T cells, median",tetramer^+ CD8^+ T cells [1]; IBV-specific T cell lines,0.3%
same,Tm (temperature required to unfold 50% of the protein) of pHLA-A*02:01 complex,HLA-A*02:01,~72 °C
same,memory CD8^+ T cell responses (IFN-γ production after peptide re-stimulation),[2],robust memory CD8^+ T cell responses
same,additional low avidity CD8^+ T cells detected by Q115E staining,CD8^+ T cells [3],no additional
same,healthy donors with detectable levels of epitope-specific CD8^+ T cells,[4],80%
same,CD38^+/Ki-67^+ expression of tetramer-positive CD8^+ T cells,tetramer^+ CD8^+ T cells [5],increase
same,increase in frequency of epitope-specific CD8^+ T cells in blood versus healthy donors,tetramer^+ CD8^+ T cells [5],6 fold
same,increase in numbers of epitope-specific CD8^+ T cells versus healthy donors,tetramer^+ CD8^+ T cells [5],2.6 fold
same,individuals with detected epitope-specific CD8^+ T cells,tetramer^+ CD8^+ T cells [5],50% and 87.5%
same,increase from baseline to d14,tetramer^+CD8^+ T cells,19 fold
same,phenotype of the majority of lung tetramer^+ CD8^+ T cells,human lung CD8^+ T cells; human lung,tissue-resident memory CD69^+CD103^+CD45RO^+ phenotype
same,epitope-specific CD8^+ T cells detected within human lung CD8^+ T cells,human lung CD8^+ T cells; n=3 lung donors,2/3
same,pEC50,CD8^+ T cells [6],9.05
